From patent US20210355129A1, “NOVEL UREA 6,7-DIHYDRO-4H-PYRAZOLO[1,5-A]PYRAZINES ACTIVE AGAINST THE HEPATITIS B VIRUS (HBV)” (AICURIS GMBH & CO. KG, priority 2018, published 2021)

What was measured:
[1] = system: HBV; assay: Determination of HBV DNA from the supernatants of HepAD38 cells (anti-HBV activity); conditions: Hepatitis B virus, HePAD38, 144 h, read-out: Cell Activity
[2] = Cell viability assay (AlamarBlue); format: cell-based; conditions: human, HepAD38 cells in the presence of 0.3 μg/ml tetracycline, six days incubation
Protocol: Using the AlamarBlue viability assay cytotoxicity was evaluated in HepAD38 cells in the presence of 0.3 μg/ml tetracycline, which blocks the expression of the HBV genome. Assay condition and plate layout were in analogy to the anti-HBV assay, however other controls were used. On each assay plate six wells containing untreated HepAD38 cells were used as the 100% viability control, and six wells filled with assay medium only were used as 0% viability control. In addition, a geometric concentration series of cycloheximide starting at 60 μM final assay concentration was used as positive control in each experiment. After six days incubation period Alamar Blue Presto cell viability reagent (ThermoFisher, Dreieich) was added in 1/11 dilution to each well of the assay plate. After an incubation for 30 to 45 min at 37° C. the fluorescence signal, which is proportional to the number of living cells, was read using a Tecan Spectrafluor Plus plate reader with an excitation filter 550 nm and emission filter 595 nm, respectively. […] Mean EC50 and CC50 values were used to calculate the selectivity index (SI=CC50/EC50) for each test compound.

Row | Compound | EC50 [1] [µM] | CC50 at 6 days [2] [µM]
1 | CC(C)OCC1(N(C)C(=O)c2cnn3c2CN(C(=O)Nc2ccc(F)c(Cl)c2)CC3)CC1 [Example 2, N5-(3-chloro-4-fluorophenyl)-N3-methyl-N3-{1-[(propan-2-yloxy)methyl]cyclopropyl}-4H,5H,6H,7H-pyrazolo[1,5-a]pyrazine-3,5-dicarboxamide] | < 1 | > 10
2 | COCC1(N(C)C(=O)c2cnn3c2CN(C(=O)Nc2ccc(F)c(Cl)c2)C(C)C3)CC1 (stereo not shown) [Example 1, N5-(3-chloro-4-fluorophenyl)-N3-[1-(methoxymethyl)cyclopropyl]-N3,6-dimethyl-4H,5H,6H,7H-pyrazolo[1,5-a]pyrazine-3,5-dicarboxamide] | < 1 | > 10
3 | CN(C(=O)c1cnn2c1CN(C(=O)Nc1ccc(F)c(Cl)c1)CC2)C1(CNCC(F)(F)F)CC1 [Example 13, N5-(3-chloro-4-fluorophenyl)-N3-methyl-N3-(1-{[(2,2,2-trifluoroethyl)amino]methyl}cyclopropyl)-4H,5H,6H,7H-pyrazolo[1,5-a]pyrazine-3,5-dicarboxamide] | < 1 | > 10
4 | CN(C(=O)c1cnn2c1CN(C(=O)Nc1ccc(F)c(Cl)c1)CC2)C1(COC(F)F)CC1 [Example 4, N5-(3-chloro-4-fluorophenyl)-N3-{1-[(difluoromethoxy)methyl]cyclopropyl}-N3-methyl-4H,5H,6H,7H-pyrazolo[1,5-a]pyrazine-3,5-dicarboxamide] | < 1 | > 10
5 | O=C(Nc1ccc(F)c(Cl)c1)N1CCn2ncc(C(=O)N(CCO)C3(CO)CC3)c2C1 [Example 10, N5-(3-chloro-4-fluorophenyl)-N3-(2-hydroxyethyl)-N3-[1-(hydroxymethyl)cyclopropyl]-4H,5H,6H,7H-pyrazol [1,5-a]pyrazine-3,5-dicarboxamide] | < 1 | > 10
6 | CN(C(=O)c1cnn2c1CN(C(=O)Nc1ccc(F)c(Cl)c1)CC2)C1(CCOC(F)F)CCOCC1 [Example 16, N5-(3-chloro-4-fluorophenyl)-N3-{4-[2-(difluoromethoxy)ethyl]oxan-4-yl}-N3-methyl-4H,5H,6H,7H-pyrazolo[1,5-a]pyrazine-3,5-dicarboxamide] | < 1 | > 10
7 | O=C(Nc1ccc(F)c(Cl)c1)N1CCn2ncc(C(=O)N3CCOCCC34CC4)c2C1 [Example 12, N-(3-chloro-4-fluorophenyl)-3-{7-oxa-4-azaspiro[2.6]nonane-4-carbonyl}-4H,5H,6H,7H-pyrazolo[1,5-a]pyrazine-5-carboxamide] | < 1 | > 10
8 | CN(C(=O)c1cnn2c1CN(C(=O)Nc1ccc(F)c(Cl)c1)CC2)C1(CCOC(F)F)CCCC1 [Example 15, N5-(3-chloro-4-fluorophenyl) -N3-{1-[2-(difluoromethoxy)ethyl]cyclopentyl}-N3-methyl-4H,5H,6H,7H -pyrazolo [1,5-a]pyrazine-3,5-dicarboxamide] | < 1 | > 10
9 | CN(C(=O)c1cnn2c1CN(C(=O)Nc1ccc(F)c(Cl)c1)CC2)C1(CO)CC1 [Example 9, N5-(3-chloro-4-fluorophenyl)-N3-[1-(hydroxymethyl)cyclopropyl]-N3-methyl-4H,5H,6H,7H-pyrazolo[1,5-a]pyrazine-3,5-dicarboxamide] | < 1 | > 10
10 | CC1Cn2ncc(C(=O)N(C)C3CC3)c2CN1C(=O)Nc1ccc(F)c(Cl)c1 (stereo not shown) [Example 17, N5-(3-chloro-4-fluorophenyl)-N3-cyclopropyl-N3,6-dimethyl-4H,5H,6H,7H -pyrazolo[1,5-a]pyrazine-3,5-dicarboxamide] | < 1 | > 10
11 | O=C(Nc1ccc(F)c(Cl)c1)N1CCn2ncc(C(=O)N3CC(F)(F)CC34CC4)c2C1 [Example 5, N-(3-chloro-4-fluorophenyl)-3-{6,6-difluoro-4-azaspiro[2.4]heptane-4-carbonyl}-4H,5H,6H,7H-pyrazolo[1,5-a]pyrazine-5-carboxamide] | < 1 | > 10
12 | O=C(Nc1ccc(F)c(Cl)c1)N1CCn2ncc(C(=O)N3CCCOCC34CC4)c2C1 [Example 11, N-(3-chloro-4-fluorophenyl) -3-{8-oxa-4-azaspiro[2.6]nonane-4-carbonyl}-4H,5H,6H,7H-pyrazolo[1,5-a]pyrazine-5-carboxamide] | < 1 | > 10
13 | CC1Cn2ncc(C(=O)N(C)C3(COC(F)F)CC3)c2CN1C(=O)Nc1ccc(F)c(Cl)c1 (stereo not shown) [Example 6, N5-(3-chloro-4-fluorophenyl)-N3-{1-[(difluoromethoxy)methyl]cyclopropyl}-N3,6-dimethyl-4H,5H,6H,7H-pyrazolo[1,5-a]pyrazine-3,5-dicarboxamide] | < 1 | > 10
14 | CCOCC1(N(C)C(=O)c2cnn3c2CN(C(=O)Nc2ccc(F)c(Cl)c2)CC3)CC1 [Example 3, N5-(3-chloro-4-fluorophenyl)-N3-[1-(ethoxymethyl)cyclopropyl]-N3-methyl-4H,5H,6H,7H-pyrazolo[1,5-a]pyrazine-3,5-dicarboxamide] | < 1 | > 10
15 | CN(C(=O)c1cnn2c1CN(C(=O)Nc1ccc(F)c(Cl)c1)CC2)C1(c2ncccn2)CC1 [Example 8, N5-(3-chloro-4-fluorophenyl)-N3-methyl-N3-[1-(pyrimidin-2-yl)cyclopropyl]-4H,5H,6H,7H-pyrazolo[1,5-a]pyrazine-3,5-dicarboxamide] | < 1 | > 10
16 | CN(C(=O)c1cnn2c1CN(C(=O)Nc1ccc(F)c(Cl)c1)CC2)C1(c2ccncc2)CC1 [Example 7, N5-(3-chloro-4-fluorophenyl)-N3-methyl-N3-[1-(pyridin-4-yl)cyclopropyl]-4H,5H,6H,7H-pyrazolo[1,5-a]pyrazine-3,5-dicarboxamide] | < 1 | > 10
17 | CN(C(=O)c1cnn2c1CN(C(=O)Nc1ccc(F)c(Cl)c1)CC2)C1(CCOC(F)F)CCC1 [Example 14, N5-(3-chloro-4-fluorophenyl)-N3-{1-[2-(difluoromethoxy)ethyl]cyclobutyl}-N3-methyl-4H,5H,6H,7H-pyrazolo[1,5-a]pyrazine-3,5-dicarboxamide] | < 1 | > 10
